This passage reports inhibition results from patent US6472386B1, “Cyclic diamine compound with 5-membered ring groups” (Kowa Co., Ltd., priority 2001, dated 2002).

Where two headings read alike, the source gives them in different places.

The test system of this assay is adhesion of U937 cells to HUVEC stimulated by IL-1β or TNFα. Put plainly: Inhibitory effect on cell adhesion (U937 cells adhering to stimulated HUVEC). It counts as cell-based. The settings on record: Homo sapiens, compound at 1 μM. The protocol:
This test was conducted by reference to the method of Ross et al. (J. Biol. Chem., 267, 8537-8543 (1992)). More specifically, after human umbilical venous endothelial cells (HUVEC) were cultured on a 48-well plate to confluent growth, IL-1β or TNFα was added thereto. Upon elapsed time of 5 hours after the addition, U937, which is a human monocytic/histocytic cell fluorescence-labeled with PKH2 (product of Dainippon Pharmaceutical Co., Ltd.), was added in a proportion of 1×10^6 cells per well. After the plate was left at rest at room temperature for 1 hour, unadhered U937 was washed out and lysed in 1% Triton X-100 to measure a remaining fluorescence intensity (excitation wavelength: 480 nm; measuring wavelength: 530 nm). HUVEC and U937 were cultured in EGM-2 (product of Sanko Junyaku K.K.) and 10% FCS-containing RPMI1640, respectively. Each test agent was added to HUVEC upon the addition of IL-1β or TNFα and to U937 24 hours prior to the cell adhesion test. The inhibitory activity was calculated out according to the equation [100-(C−B)/(A−B)×100 (%)], wherein A is the number of U937 cells adhered to HUVEC stimulated by IL-1β or TNFα when no test agent was added, B is the number of U937 cells adhered to HUVEC not stimulated by IL-1β or TNFα when no test agent was added, and C is the number of U937 cells adhered to HUVEC stimulated by IL-1β or TNFα when the test agent was added. As control compounds, Test Compound 1 described in Japanese Patent Application Laid-Open No. 9-143075 and dilazep described in Japanese Patent Application Laid-Open No. 11-92382 were simultaneously evaluated.

The mark [1] stands for this setting: HUVEC stimulated by IL-1β, read-out: Percent inhibition (%) Stimulation by IL-1β.
Setting [2] is: HUVEC stimulated by TNFα, read-out: Percent inhibition (%) Stimulation by TNFα.

Usually inhibition stands for the share of the control response that was lost under treatment. Turning to `COc1cc(C(=O)OCCCN2CCCN(CCCOC(=O)c3cc(OC)c(OC)c(OC)c3)CC2)cc(OC)c1OC` [Dilazep, dilazep, reference compound], the inhibition at 1 µM was 0% under setting [1] and 12% under setting [2].

With `COc1cc(-c2nc(CCCN3CCCN(CCCc4csc(-c5cc(OC)c(OC)c(OC)c5)n4)CC3)cs2)cc(OC)c1OC` [Example 6, N,N′-bis[3-(2-(3,4,5-Trimethoxyphenyl)-thiazol-4-yl)propyl]homopiperazine], the inhibition at 1 µM under setting [1] worked out at 54% and the inhibition at 1 µM under setting [2] was found to be 45%.

Take `COc1cc(C#Cc2nc(CN3CCCN(Cc4csc(C#Cc5cc(OC)c(OC)c(OC)c5)n4)CC3)cs2)cc(OC)c1OC` [Example 7, N,N′-bis[[2-(3,4,5-Trimethoxyphenylethynyl)-thiazol-4-yl]methyl]homopiperazine]: the inhibition at 1 µM runs as follows: under setting [1], 46%; under setting [2], 60%.

Take `COc1cc(C(=O)Nc2nc(CN3CCN(Cc4csc(NC(=O)c5cc(OC)c(OC)c(OC)c5)n4)CC3)cs2)cc(OC)c1OC` [Example 8, N,N′-bis[[2-(3,4,5-Trimethoxybenzamido)-thiazol-4-yl]methyl]piperazine]: the inhibition at 1 µM under setting [1] came out at 64% and the inhibition at 1 µM under setting [2] was determined as 58%.

As to `COc1cc(C(=O)Nc2nc(CN3CCCN(Cc4csc(NC(=O)c5cc(OC)c(OC)c(OC)c5)n4)CC3)cs2)cc(OC)c1OC` [Example 9, N,N′-bis[[2-(3,4,5-Trimethoxybenzamido)-thiazol-4-yl]methyl]homopiperazine], the inhibition at 1 µM under setting [1] worked out at 40% and the inhibition at 1 µM under setting [2] was 50%.

Regarding `COc1cc(-c2nc(C)c(CN3CCCN(Cc4sc(-c5cc(OC)c(OC)c(OC)c5)nc4C)CC3)s2)cc(OC)c1OC` [Example 11, N,N′-bis[[4-Methyl-2-(3,4,5-trimethoxy-phenyl)thiazol-5-yl]methyl]homopiperazine Dimaleate], the inhibition at 1 µM under setting [1] is 33% and the inhibition at 1 µM under setting [2] was determined as 53%.

With `COc1cc(-c2cc(CN3CCN(Cc4cc(-c5cc(OC)c(OC)c(OC)c5)n(Cc5ccccc5)n4)CC3)nn2Cc2ccccc2)cc(OC)c1OC` [Example 16, N,N′-bis[[1-Benzyl-5-(3,4,5-trimethoxy-phenyl)pyrazol-3-yl]methyl]piperazine], the inhibition at 1 µM under setting [1] was 30% and the inhibition at 1 µM under setting [2] came to 51%.
